Here are results for 3 compounds from PMC6724035, “Evaluation of Tumor-Targeting Properties of an Antagonistic Bombesin Analogue RM26 Conjugated with a Non-Residualizing Radioiodine Label Comparison with a Radiometal-Labelled Counterpart” (Pharmaceutics, 2019).

For series [1], the system named is GRPR-expressing PC-3 tumour xenograft. To be noted: 0.5 h after injection; co-injection of non-labelled NOTA-PEG4-RM26. On the procedure: (§1) Animal studies were planned and performed in agreement with EU Directive 2010/63/EU for animal experiments and Swedish national legislation concerning protection of laboratory animals. Experiments were approved by the Ethics Committee for Animal Research in Uppsala (C4/16, 26 February 2016). Biodistribution studies were performed in female BALB/C nu/nu mice purchased from Scanbur A/S (Karlslunde, Denmark). GRPR-expressing xenografts were established by subcutaneous injection of 5 × 10^6 PC-3 cells/mouse in the right hind leg of mice 3 weeks before the experiment. The animals were randomized into groups of four mice for each data point.
Mice were euthanized followed by dislocation of their neck at 0.5 h after injection and blood samples were collected by heart puncture. At 3 and 24 h after injection, mice were euthanized by an intraperitoneal injection of anaesthetic solution (20 µL of solution per gram of body weight: Ketalar, 10 mg/mL; Rompun, 1 mg/mL) followed by heart puncture. […] The organ radioactivity was measured in a gamma-counter and uptake values of organs were calculated as percentage of injected dose per gram tissue (% ID/g). To test the in vivo binding specificity, a group of mice was co-injected with 7.5 nmol of non-labelled peptide (NOTA-PEG4-RM26), and biodistribution was measured at 0.5 h after injection.

A further series can be described thus: in vivo. The following applies: mouse, iv, 40 pmol, Uptake, 40 pmol i.v.; for tissue uptake at 0.5 h: 0.5 h after injection; for tissue uptake at 3 h: 3 h after injection; for tissue uptake at 24 h: 24 h after injection. The procedure:
as §1
(§2) Mice were euthanized followed by dislocation of their neck at 0.5 h after injection and blood samples were collected by heart puncture. At 3 and 24 h after injection, mice were euthanized by an intraperitoneal injection of anaesthetic solution (20 µL of solution per gram of body weight: Ketalar, 10 mg/mL; Rompun, 1 mg/mL) followed by heart puncture. Salivary glands, thyroid, lung, liver, spleen, pancreas, stomach, small intestine, kidneys, tumour, muscle, and bone were collected and weighed. The organ radioactivity was measured in a gamma-counter and uptake values of organs were calculated as percentage of injected dose per gram tissue (% ID/g). To test the in vivo binding specificity, a group of mice was co-injected with 7.5 nmol of non-labelled peptide (NOTA-PEG4-RM26), and biodistribution was measured at 0.5 h after injection.

Series [2] has as its system GRPR-expressing PC-3 tumour xenograft. Nature of the series: in vivo. To be noted: 0.5 h after injection; 40 pmol i.v.; non-blocked. The procedure:
as §1, §2

The procedure of series [3]: Lipophilicity was determined as the logarithm of partition coefficient, logP, of the radiolabelled compound between n-octanol and water. To determine the lipophilicity of both radioconjugates, 500 µL of n-octanol was added to a tube containing the same volume of Milli-Q water. 1 pmol (10 kBq) of radioconjugate was added. The mixture was vigorously vortexed for 1–2 min and then centrifuged. Aliquots of 100 μL were taken from each phase and their radioactivity was measured by an automated gamma-counter. The partition coefficient was calculated as the average log of a ratio of the radioactivity in organic and aqueous fractions. Each measurement was repeated in triplicate.

For series [4], the target named is GRPR (Homo sapiens, UniProt P30550). Kind of series: biochemical. On the procedure:
All experiments were performed in triplicate and 1 × 10^6 cells/dish were seeded one day before the experiment.

The test system of series [5] is GRPR. Further details: method as in PMID 16818949, PMID 7876231. To be noted: within 20–40 min; cited from earlier work.
Where [6] appears, read: small intestine, small intestine.

Marks after values point to notes of the source that are not given here. Where no end group is shown, it is not given here.

GRPR (Homo sapiens, UniProt P30550), sequence (P30550 whole entry): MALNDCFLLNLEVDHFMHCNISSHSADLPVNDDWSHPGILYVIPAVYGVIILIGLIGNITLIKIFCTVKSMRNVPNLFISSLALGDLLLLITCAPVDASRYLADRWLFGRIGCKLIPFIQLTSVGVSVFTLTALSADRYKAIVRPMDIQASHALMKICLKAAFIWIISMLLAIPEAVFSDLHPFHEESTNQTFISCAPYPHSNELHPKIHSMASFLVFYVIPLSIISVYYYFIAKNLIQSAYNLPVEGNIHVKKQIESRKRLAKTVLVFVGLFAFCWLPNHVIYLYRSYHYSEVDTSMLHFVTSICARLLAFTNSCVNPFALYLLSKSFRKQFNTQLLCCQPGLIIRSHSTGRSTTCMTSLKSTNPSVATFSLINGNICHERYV

What is called tissue uptake is the share of the injected amount in each gram of the tissue. The logP is a log measure of how a compound divides between an organic and an aqueous phase. Lower therefore signals lower lipophilicity. In the case of `CC(C)C[C@H](NC(=O)C[C@H](O)[C@H](CC(C)C)NC(=O)[C@H](Cc1c[nH]cn1)NC(=O)CNC(=O)[C@@H](NC(=O)[C@H](C)NC(=O)[C@H](Cc1c[nH]c2ccccc12)NC(=O)[C@H](CCC(N)=O)NC(=O)[C@@H](Cc1ccccc1)NC(=O)COCCOCCNC(=O)CN1CCN(CC(=O)O)CCN(CC(=O)O)CCN(CC(=O)O)CC1)C(C)C)C(N)=O` [[^111In]In-DOTA-PEG2-RM26, metal not drawn, reference compound], in series [1], the “Uptake in pancreas, blocked vs non-blocked group” value is given as “significant (p < 0.05) reduction”. For the same compound, the tissue uptake at 0.5 h is 2.1 ± 0.8 %ID/g in “in vivo” (blood, blood); 0.6 ± 0.3 %ID/g in “in vivo” (bone, bone); 9.1 ± 2.9 %ID/g in the series “in vivo” (kidney, kidney); 0.8 ± 0.2 %ID/g in “in vivo” (liver, liver); 1.8 ± 0.4 %ID/g in “in vivo” (lung, lung); 0.4 ± 0.1 %ID/g in “in vivo” (muscle, muscle). Besides, the tissue uptake at 0.5 h in the series “in vivo” (pancreas, pancreas) is 6.5 ± 1.4 %ID/g; in “in vivo” (salivary gland, salivary gland) it was 0.8 ± 0.2 %ID/g; in “in vivo” (setting [6]) it was 1.5 ± 0.5 %ID/g; in the series “in vivo” (spleen, spleen), 0.6 ± 0.2 %ID/g; in the series “in vivo” (stomach, stomach), 2.9 ± 1.1 %ID/g; in “in vivo” (thyroid, thyroid), 1.1 ± 0.5 %ID/g. This compound gave a tissue uptake at 0.5 h in the series “in vivo” (tumour, tumour, non-blocked) of 13 ± 5 %ID/g. Besides, the tissue uptake at 3 h in “in vivo” (blood, blood) was 0.03 %ID/g; in “in vivo” (bone, bone) it was 0.05 ± 0.02 %ID/g; in “in vivo” (kidney, kidney), 2.4 ± 0.3 %ID/g; in “in vivo” (liver, liver), 0.2 %ID/g; in the series “in vivo” (lung, lung), 0.1 %ID/g; in “in vivo” (muscle, muscle), 0.02 %ID/g. Moreover, the tissue uptake at 3 h in “in vivo” (pancreas, pancreas) came out at 0.2 %ID/g; in “in vivo” (salivary gland, salivary gland), 0.07 ± 0.02 %ID/g; in “in vivo” (setting [6]) it was 0.2 ± 0.1 %ID/g; in the series “in vivo” (spleen, spleen), 0.1 %ID/g; in the series “in vivo” (thyroid, thyroid), 0.1 %ID/g; in the series “in vivo” (tumour, tumour) it was 9.6 ± 0.6 %ID/g. Besides, the tissue uptake at 24 h was 0.006 ± 0.002 %ID/g in “in vivo” (blood, blood); 0.1 %ID/g in the series “in vivo” (liver, liver); 3.6 ± 1.3 %ID/g in the series “in vivo” (tumour, tumour). The “Uptake, tumour” value in series [2] was 13.2 ± 4.8 ^a,h % ID/g. The logP in series [3] was -2.6 ± 0.4.

Broadly, the IC50 is the concentration that inhibits the measured activity by half. Read a low IC50 as greater potency. Consider `CC(C)C[C@H](NC(=O)C[C@H](O)[C@H](CC(C)C)NC(=O)[C@H](Cc1c[nH]cn1)NC(=O)CNC(=O)[C@@H](NC(=O)[C@H](C)NC(=O)[C@H](Cc1c[nH]c2ccccc12)NC(=O)[C@H](CCC(N)=O)NC(=O)[C@@H](Cc1ccccc1)NC(=O)COCCOCCNC(=O)[C@@H](N)Cc1ccc(O)cc1)C(C)C)C(N)=O` [Tyr-PEG2-RM26, Tyrosine-PEG2-[D-Phe^6, Sta^13, Leu^14] bombesin[6–14]], for which 1.7 ± 0.3 nM corresponded to half-maximal inhibition at GRPR [4] (IC50).

With “[^125I]I-GRP: agonistic radioiodinated gastrin-releasing peptide (VPLPAGGGTVLTKMYPRGNHWAVGHLM; ends and bridges not checked; also: 125I radioiodination, position not given here; UniProt P07492 24-50, looked up)”, in the series on GRPR [5], the Internalization is 75–80%.
